Here are results for ten molecules from US20130158075A1, “HETEROCYCLIC COMPOUNDS AS DGAT1 INHIBITORS” (PIRAMAL ENTERPRISES LIMITED, priority 2010, published 2013).

One experiment has as its system DGAT1 mediated retinyl-ester formation in Caco-2 cells.
Assay: not given
As to conditions: cited from earlier work.
In the case of `CC(C)C(NC(=O)c1ccc(-c2ccc(Nc3nc4ccc(F)cc4s3)cc2)cc1)C(=O)O` (centres unmarked) [XP620, 2-(4′-(6-fluorobenzo[d]thiazol-2-ylamino)biphenyl-4-ylcarboxamido)-3-methylbutanoic acid], the “block of DGAT1 mediated retinyl-ester formation” value is “able to block”.

For the next experiment, the target named is DGAT2 (Homo sapiens, UniProt Q96PD7).
Sequence of DGAT2 (Q96PD7 whole entry, species assumed): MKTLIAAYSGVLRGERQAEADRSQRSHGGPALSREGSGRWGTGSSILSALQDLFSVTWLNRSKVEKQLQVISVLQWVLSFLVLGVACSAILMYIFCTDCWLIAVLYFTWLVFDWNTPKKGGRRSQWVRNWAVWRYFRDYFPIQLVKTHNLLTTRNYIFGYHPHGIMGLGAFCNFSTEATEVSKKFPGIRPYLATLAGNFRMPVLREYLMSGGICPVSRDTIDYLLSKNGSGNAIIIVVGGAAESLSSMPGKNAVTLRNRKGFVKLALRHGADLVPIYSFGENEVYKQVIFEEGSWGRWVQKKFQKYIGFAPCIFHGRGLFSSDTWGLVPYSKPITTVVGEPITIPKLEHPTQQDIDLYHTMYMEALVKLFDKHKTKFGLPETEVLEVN
Assay: not given
The settings on record: cited from earlier work.
As for `CC(C)C(NC(=O)c1ccc(-c2ccc(Nc3nc4ccc(F)cc4s3)cc2)cc1)C(=O)O` (centres unmarked) [XP620, 2-(4′-(6-fluorobenzo[d]thiazol-2-ylamino)biphenyl-4-ylcarboxamido)-3-methylbutanoic acid], the “activity against DGAT2” value is on record as “no activity”.

The target of a further experiment is T1, hDGAT1 (Homo sapiens, UniProt O75907).
T1 construct: made in house; host or cells: Sf9 insect cells (baculovirus); microsomal fraction
T1 sequence (O75907 1-488): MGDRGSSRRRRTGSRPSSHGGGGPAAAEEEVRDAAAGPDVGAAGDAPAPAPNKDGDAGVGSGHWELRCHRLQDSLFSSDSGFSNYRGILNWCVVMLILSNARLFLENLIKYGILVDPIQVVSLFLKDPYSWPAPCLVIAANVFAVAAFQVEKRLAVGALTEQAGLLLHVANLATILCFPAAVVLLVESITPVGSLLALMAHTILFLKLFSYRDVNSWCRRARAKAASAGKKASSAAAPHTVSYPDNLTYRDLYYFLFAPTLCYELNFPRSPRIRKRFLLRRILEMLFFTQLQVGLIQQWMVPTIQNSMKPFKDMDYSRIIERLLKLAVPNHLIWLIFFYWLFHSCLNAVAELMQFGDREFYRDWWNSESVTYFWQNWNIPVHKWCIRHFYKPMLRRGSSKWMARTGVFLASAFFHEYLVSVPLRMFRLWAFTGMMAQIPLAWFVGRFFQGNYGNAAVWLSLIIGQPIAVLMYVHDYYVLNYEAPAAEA
Description: In-vitro DGAT1 assay with hDGAT1 microsomes from Sf9 cells (14C oleoyl CoA, scintillation counting). Format: biochemical. As to conditions: read-out: Percentage inhibition of hDGAT1. A digest of the protocol: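 Microsomes from Sf9 cells infected with hDGAT1 baculovirus (MOI 5, harvested ~66-72 h) were incubated with [14C]oleoyl-CoA and 1,2-dioleoyl-sn-glycerol at 37 °C for 10 min, in duplicate. After alkaline ethanol stop, triglycerides were heptane-extracted and counted by liquid scintillation; percent inhibition was plotted against compound concentration (nM).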
For `CC(=O)NC(=O)CC1CCC(c2ncc(-c3ccc(NC(=O)Nc4ccccc4Cl)cc3)s2)CC1` (centres unmarked) [Example 400, N-Acetyl-2-(4-(5-(4-(3-(2-chlorophenyl)ureido)phenyl)thiazol-2-yl)cyclohexyl)acetamide], the inhibition at 1 µM is more than 50%. On the same count and under the same terms, to `CC(C)(CCc1ncc(-c2ccc(NC(=O)c3ccc(C(C)(C)C)cc3)cc2)s1)C(=O)O` [Example 106, 4-(5-(4-(4-tert-Butylbenzamido)phenyl)thiazol-2-yl)-2,2-dimethylbutanoic acid] belongs more than 50%; to `O=C(O)CCCc1nnc(-c2ccc(NC(=O)Nc3ccc(Cl)cc3Oc3ccccc3)cc2)s1` [Example 286, 4-(5-(4-(3-(4-Chloro-2-phenoxyphenyl)ureido)phenyl)-1,3,4-thiadiazol-2-yl)butanoic acid], more than 50%; to `CC(C)(NS(=O)(=O)C(F)(F)F)c1ncc(-c2ccc(NC(=O)Nc3cc(F)cc(F)c3)cc2)s1` [Example 564, N-(2-(5-(4-(3-(3,5-Difluorophenyl)ureido)phenyl)thiazol-2-yl)propan-2-yl)-1,1,1-trifluoromethanesulfonamide], more than 50%. Same read-out and setting: to `O=C(O)CCCc1ncc(-c2ccc(NC(=O)Nc3cccc(C(F)(F)F)c3)cc2)s1` [Example 49, 4-(5-(4-(3-(3-(Trifluoromethyl)phenyl)ureido)phenyl)thiazol-2-yl)butanoic acid] belongs more than 50%; to `O=C(O)CN1CCC(c2ncc(-c3ccc(NC(=O)Nc4ccc(F)cc4F)cc3)s2)CC1` [Example 433, 2-(4-(5-(4-(3-(2,4-Difluorophenyl)ureido)phenyl)thiazol-2-yl)piperidin-1-yl)acetic acid], more than 50%; to `O=C(Nc1ccc(-c2cnc(C3CCC(C(=O)O)CC3)o2)cc1)Nc1ccccc1Cl` (centres unmarked) [Example 204, 4-(5-(4-(3-(2-Chlorophenyl)ureido)phenyl)oxazol-2-yl)cyclohexanecarboxylic acid], 20 to 50%.

Turning to `O=C(O)CN1CCC(c2ncc(-c3ccc(NC(=O)Nc4cc(F)c(F)cc4F)cc3)s2)CC1` [Example 435, 2-(4-(5-(4-(3-(2,4,5-Trifluorophenyl)ureido)phenyl)thiazol-2-yl)piperidin-1-yl)acetic acid], the inhibition at 1 µM was more than 50%.

In the case of `O=C(O)CC1CCC(c2ncc(-c3ccc(NC(=O)Nc4cc(F)cc(F)c4)cc3)s2)CC1` (centres unmarked) [Example 356, 2-(4-(5-(4-(3-(3,5-Difluorophenyl)ureido)phenyl)thiazol-2-yl)cyclohexyl)acetic acid], the inhibition at 1 µM is more than 50%.

A word on the inhibition: it is how much of the control response was suppressed.
